The term IC50 denotes the concentration at which inhibition is half-maximal. The EC50 is the concentration giving half of the maximal effect. Usually fraction unbound stands for the share of the substance not bound to proteins or other matrix.

The target of series [1] is Adenosine receptor A3 (Homo sapiens) (UniProt P0DMS8). In words: Displacement of [125I]AB-MECA from recombinant full length human adenosine A3 receptor expressed in CHO-K1 cells assessed as residual binding level for radioligand at 10 uM after 60 mins by radiometric scintillation analysis relative to control. In kind it is cell-based.
In the next series the target is Cytochrome P450 3A4 (Homo sapiens, UniProt P08684). In words: Inhibition of CYP3A4 (unknown origin). In kind it is ADME.
Sequence of Cytochrome P450 3A4 (P08684 whole entry): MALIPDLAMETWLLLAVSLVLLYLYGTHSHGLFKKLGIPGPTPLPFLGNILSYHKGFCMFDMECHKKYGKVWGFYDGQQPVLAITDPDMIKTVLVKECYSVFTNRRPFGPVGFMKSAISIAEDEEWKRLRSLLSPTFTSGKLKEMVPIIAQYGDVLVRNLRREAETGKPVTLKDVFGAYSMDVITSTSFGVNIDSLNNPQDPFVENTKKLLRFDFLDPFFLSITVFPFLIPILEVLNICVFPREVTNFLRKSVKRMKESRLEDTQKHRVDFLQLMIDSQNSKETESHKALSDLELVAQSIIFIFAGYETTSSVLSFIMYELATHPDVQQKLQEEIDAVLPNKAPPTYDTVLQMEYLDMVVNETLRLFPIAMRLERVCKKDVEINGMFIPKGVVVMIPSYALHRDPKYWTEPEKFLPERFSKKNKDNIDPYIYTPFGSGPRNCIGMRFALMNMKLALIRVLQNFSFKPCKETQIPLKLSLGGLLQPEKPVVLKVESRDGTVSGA
For the next series, the species on record is Canis lupus familiaris. Description: Positive allosteric modulation of dog M4 receptor relative to acetylcholine.
Series [2] concerns the target Prostaglandin E2 receptor EP4 subtype (Homo sapiens) (UniProt P35408). In words: Displacement of [3H]-Prostaglandin E2 from full length recombinant human prostanoid receptor EP4 expressed in Chem-1 cells assessed as residual binding level for radioligand at 10 uM incubated for 120 mins by scintillation counting analysis relative to control. In kind it is cell-based. Background: Displacement assays read how much labelled ligand stays bound in the presence of the test substance.

Series [3] deals with T1, Muscarinic acetylcholine receptor M4 (Homo sapiens, UniProt P08173).
T1 sequence (P08173 whole entry): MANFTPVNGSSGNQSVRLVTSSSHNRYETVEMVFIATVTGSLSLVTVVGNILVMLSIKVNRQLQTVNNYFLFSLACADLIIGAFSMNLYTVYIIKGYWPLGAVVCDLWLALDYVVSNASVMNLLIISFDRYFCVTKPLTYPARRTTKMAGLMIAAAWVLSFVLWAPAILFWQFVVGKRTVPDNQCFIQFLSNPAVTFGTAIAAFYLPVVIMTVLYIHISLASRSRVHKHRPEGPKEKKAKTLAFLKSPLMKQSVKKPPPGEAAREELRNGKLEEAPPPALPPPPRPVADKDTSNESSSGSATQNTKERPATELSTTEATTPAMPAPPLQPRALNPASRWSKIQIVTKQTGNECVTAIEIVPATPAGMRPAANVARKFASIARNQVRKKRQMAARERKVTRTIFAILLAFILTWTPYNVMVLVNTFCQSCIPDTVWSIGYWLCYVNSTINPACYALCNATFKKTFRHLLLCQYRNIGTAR
Description: Positive allosteric modulation of human M4 receptor/Gqi5 in presence of EC20 acetylcholine by calcium mobilization assay. In kind it is functional.

The target in series [4] is T2, Muscarinic acetylcholine receptor M2 (Homo sapiens, UniProt P08172).
T2 sequence (P08172 whole entry): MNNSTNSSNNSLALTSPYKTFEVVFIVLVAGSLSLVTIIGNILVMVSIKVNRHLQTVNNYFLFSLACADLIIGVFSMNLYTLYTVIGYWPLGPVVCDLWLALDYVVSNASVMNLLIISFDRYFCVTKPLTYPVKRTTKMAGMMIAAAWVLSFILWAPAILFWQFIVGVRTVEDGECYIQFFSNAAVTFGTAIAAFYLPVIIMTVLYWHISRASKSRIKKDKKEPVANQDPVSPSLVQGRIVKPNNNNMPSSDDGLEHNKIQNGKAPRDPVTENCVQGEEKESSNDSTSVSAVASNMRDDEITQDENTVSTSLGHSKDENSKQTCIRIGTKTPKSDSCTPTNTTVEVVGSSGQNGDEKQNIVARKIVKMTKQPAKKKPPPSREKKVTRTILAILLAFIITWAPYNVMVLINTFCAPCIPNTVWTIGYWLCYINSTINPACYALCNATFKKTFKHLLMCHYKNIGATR
Description: Positive allosteric modulation of human M2 receptor/Gqi5 in presence of EC20 acetylcholine by calcium mobilization assay.

In series [5] the target is Endothelin-1 receptor (Homo sapiens) (UniProt P25101). In words: Displacement of [125I]endothelin-1 from recombinant full length human recombinant ETA receptor expressed in CHO-S cells assessed as residual binding level for radioligand at 10 uM measured after 120 mins by radiometric scintillation analysis relative to control. In kind it is cell-based.
Series [6] has as its target B2 bradykinin receptor (Homo sapiens) (UniProt P30411). Description: Displacement of [3H]bradykinin from recombinant full length human B2 receptor expressed in Chem-1 cells assessed as residual binding level for radioligand at 10 uM after 60 mins by radiometric scintillation analysis relative to control. In kind it is cell-based.
Series [7] in a line: Hepatic clearance in human. In kind it is ADME.
Series [8] addresses Delta-type opioid receptor (Homo sapiens) (UniProt P41143). In words: Displacement of [3H]-Naltrindole from recombinant full length human delta opioid receptor expressed in HEK293 cells assessed as residual binding level for radioligand at 10 uM incubated for 60 mins by scintillation counting analysis relative to control. In kind it is cell-based.
Series [9] addresses Endothelin receptor type B (Homo sapiens) (UniProt P24530). Description: Displacement of [125I]endothelin-1 from recombinant full length human recombinant ETB receptor expressed in CHO-K1 cells assessed as residual binding level for radioligand at 10 uM measured after 120 mins by radiometric scintillation analysis relative to control. In kind it is cell-based.
A short description of series [10]: Fraction unbound in rat plasma. In kind it is ADME, cell-free.
Series [11] deals with Glutamate NMDA receptor (Rattus norvegicus) (UniProt P35439+Q00959+Q00960+Q00961+Q62645+Q8VHN2+Q9R1M7). In words: Displacement of [3H]-CGP39653 from NMDA glutamate receptor in Wistar rat brain assessed as residual binding level for radioligand at 10 uM incubated for 20 mins by scintillation counting analysis relative to control. In kind it is tissue-based.
Series [12] concerns the target Gamma-aminobutyric acid type B receptor subunit 1 (Homo sapiens) (UniProt Q9UBS5). Description: Displacement of [3H]CGP-54626 from human recombinant full length GABAB1 receptor expressed in CHO-K1 cells assessed as residual binding level for radioligand at 10 uM incubated for 180 mins by scintillation counting analysis relative to control. In kind it is cell-based.

A short description of series [13]: Volume of distribution at steady state in cynomolgus monkey. In kind it is ADME, Macaca fascicularis. The conditions noted are these: in vivo, read-out: Vdss.
Series [14] has as its system Rattus norvegicus. Description: Reversal of amphetamine-induced hyperlocomotion in po dosed rat assessed as minimum effective dose. In kind it is functional. The conditions noted are these: read-out: MED.
For series [15], the target named is Alpha-1B adrenergic receptor (Homo sapiens) (UniProt P35368). Description: Displacement of [3H]-Prazosin from human adrenergic alpha 1B receptor expressed in Chem-1 cells assessed as residual binding level for radioligand at 10 uM incubated for 60 mins by radiometric scintillation analysis relative to control. In kind it is cell-based.
The target in series [16] is D(3) dopamine receptor (Homo sapiens) (UniProt P35462). In words: Displacement of [3H]spiperone from full length human dopamine D3 receptor expressed in CHO cells assessed as residual binding level for radioligand at 10 uM incubated for 60 mins by radiometric scintillation analysis relative to control. In kind it is cell-based.
Sequence of D(3) dopamine receptor (Homo sapiens) (P35462 whole entry): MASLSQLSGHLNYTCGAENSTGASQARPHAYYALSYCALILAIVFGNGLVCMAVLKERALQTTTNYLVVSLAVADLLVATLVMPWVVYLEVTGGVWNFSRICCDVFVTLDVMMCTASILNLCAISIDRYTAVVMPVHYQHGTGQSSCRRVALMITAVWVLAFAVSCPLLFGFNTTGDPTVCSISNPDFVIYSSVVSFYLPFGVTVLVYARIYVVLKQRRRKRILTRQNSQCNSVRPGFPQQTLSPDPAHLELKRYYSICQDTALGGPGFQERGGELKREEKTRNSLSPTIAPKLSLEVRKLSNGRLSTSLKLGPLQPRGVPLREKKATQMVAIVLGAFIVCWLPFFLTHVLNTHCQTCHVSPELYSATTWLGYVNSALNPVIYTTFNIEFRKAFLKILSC
Series [17] is filed under the species Rattus norvegicus. Description: Displacement of [3H]-TCP from NMDA glutamate receptor phencyclidine binding site in Wistar rat brain assessed as residual binding level for radioligand at 10 uM incubated for 45 mins by scintillation counting analysis relative to control. In kind it is tissue-based.
The target of series [18] is L-type calcium channel Cav1.2, dihydropyridine binding site (Rattus norvegicus, UniProt P22002). Description: Displacement of [3H]-Nitrendipine from L-type calcium channel Cav1.2 dihydropyridine binding site in Wistar rat brain assessed as residual binding level for radioligand at 10 uM incubated for 90 mins by radiometric scintillation analysis relative to control. The conditions noted are these: probe [3H]-Nitrendipine, read-out: Activity. In kind it is tissue-based.
Sequence of L-type calcium channel Cav1.2, dihydropyridine binding site (P22002 whole entry): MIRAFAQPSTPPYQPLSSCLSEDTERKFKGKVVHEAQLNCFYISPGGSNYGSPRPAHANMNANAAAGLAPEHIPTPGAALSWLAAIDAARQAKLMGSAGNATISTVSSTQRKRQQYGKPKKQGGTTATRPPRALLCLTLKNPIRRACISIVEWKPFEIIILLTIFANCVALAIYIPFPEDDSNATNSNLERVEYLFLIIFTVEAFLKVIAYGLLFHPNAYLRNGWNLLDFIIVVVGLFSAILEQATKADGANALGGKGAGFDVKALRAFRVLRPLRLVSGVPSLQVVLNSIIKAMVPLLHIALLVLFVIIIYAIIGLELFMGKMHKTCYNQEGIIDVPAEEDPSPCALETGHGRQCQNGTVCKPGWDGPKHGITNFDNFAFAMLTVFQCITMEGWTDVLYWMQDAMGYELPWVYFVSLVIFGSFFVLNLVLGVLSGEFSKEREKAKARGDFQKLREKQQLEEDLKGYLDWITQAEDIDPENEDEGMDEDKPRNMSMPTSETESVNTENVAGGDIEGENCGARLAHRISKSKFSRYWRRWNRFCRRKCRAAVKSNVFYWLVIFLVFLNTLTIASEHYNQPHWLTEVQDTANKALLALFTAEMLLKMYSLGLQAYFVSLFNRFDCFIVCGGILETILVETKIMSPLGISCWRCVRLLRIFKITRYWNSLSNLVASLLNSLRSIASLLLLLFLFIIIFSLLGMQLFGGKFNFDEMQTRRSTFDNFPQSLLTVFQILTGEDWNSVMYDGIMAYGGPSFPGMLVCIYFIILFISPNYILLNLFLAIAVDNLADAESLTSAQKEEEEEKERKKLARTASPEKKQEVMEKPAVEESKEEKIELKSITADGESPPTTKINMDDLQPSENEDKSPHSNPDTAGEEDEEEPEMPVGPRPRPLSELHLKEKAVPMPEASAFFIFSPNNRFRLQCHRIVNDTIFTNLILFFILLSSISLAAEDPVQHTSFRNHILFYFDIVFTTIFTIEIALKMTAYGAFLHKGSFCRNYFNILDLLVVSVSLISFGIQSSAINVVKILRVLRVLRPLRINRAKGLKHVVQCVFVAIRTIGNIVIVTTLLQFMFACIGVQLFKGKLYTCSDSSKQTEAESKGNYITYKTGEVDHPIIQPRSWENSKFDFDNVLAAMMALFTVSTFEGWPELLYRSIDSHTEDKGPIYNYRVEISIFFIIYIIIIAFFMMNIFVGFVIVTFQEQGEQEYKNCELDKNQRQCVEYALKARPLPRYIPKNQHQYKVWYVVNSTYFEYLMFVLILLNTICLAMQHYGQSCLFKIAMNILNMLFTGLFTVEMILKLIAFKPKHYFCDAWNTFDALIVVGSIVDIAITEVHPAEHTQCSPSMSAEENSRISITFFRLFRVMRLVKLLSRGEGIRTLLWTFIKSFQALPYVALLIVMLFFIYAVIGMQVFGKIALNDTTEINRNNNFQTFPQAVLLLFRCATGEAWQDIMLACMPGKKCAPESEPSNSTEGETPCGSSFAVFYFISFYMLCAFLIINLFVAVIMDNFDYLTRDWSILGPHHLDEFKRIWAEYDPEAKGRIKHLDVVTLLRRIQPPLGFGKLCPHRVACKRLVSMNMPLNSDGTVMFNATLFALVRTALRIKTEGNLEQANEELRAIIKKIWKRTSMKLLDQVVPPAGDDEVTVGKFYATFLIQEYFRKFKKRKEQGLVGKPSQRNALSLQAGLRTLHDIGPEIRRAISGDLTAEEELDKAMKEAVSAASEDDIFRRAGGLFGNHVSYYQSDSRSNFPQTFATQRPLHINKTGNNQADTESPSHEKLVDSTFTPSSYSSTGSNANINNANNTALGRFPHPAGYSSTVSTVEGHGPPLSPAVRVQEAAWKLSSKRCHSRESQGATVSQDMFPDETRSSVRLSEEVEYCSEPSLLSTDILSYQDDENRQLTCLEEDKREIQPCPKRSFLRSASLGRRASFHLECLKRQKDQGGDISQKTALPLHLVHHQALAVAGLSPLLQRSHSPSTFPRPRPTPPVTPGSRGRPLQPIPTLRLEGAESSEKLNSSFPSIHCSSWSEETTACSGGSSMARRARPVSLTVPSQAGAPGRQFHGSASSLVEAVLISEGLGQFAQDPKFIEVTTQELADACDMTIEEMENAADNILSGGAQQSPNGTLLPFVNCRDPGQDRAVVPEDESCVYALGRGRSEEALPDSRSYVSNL

For series [19], the species on record is Rattus norvegicus. In words: Displacement of [125I]-Triiodothyronine from thyroid hormone receptors in Sprague-Dawley rat liver assessed as residual binding level for radioligand at 10 uM incubated for 1080 mins by radiometric scintillation analysis relative to control. In kind it is tissue-based.
The species entered for series [20] is Rattus norvegicus. Description: Displacement of [3H]-Batrachotoxinin from Wistar rat sodium channel site 2 assessed as residual binding level for radioligand at 10 uM incubated for 60 mins by scintillation counting analysis relative to control. In kind it is tissue-based. To be noted: Brain.

Sequence of Gamma-aminobutyric acid type B receptor subunit 1 (Homo sapiens) (Q9UBS5 whole entry): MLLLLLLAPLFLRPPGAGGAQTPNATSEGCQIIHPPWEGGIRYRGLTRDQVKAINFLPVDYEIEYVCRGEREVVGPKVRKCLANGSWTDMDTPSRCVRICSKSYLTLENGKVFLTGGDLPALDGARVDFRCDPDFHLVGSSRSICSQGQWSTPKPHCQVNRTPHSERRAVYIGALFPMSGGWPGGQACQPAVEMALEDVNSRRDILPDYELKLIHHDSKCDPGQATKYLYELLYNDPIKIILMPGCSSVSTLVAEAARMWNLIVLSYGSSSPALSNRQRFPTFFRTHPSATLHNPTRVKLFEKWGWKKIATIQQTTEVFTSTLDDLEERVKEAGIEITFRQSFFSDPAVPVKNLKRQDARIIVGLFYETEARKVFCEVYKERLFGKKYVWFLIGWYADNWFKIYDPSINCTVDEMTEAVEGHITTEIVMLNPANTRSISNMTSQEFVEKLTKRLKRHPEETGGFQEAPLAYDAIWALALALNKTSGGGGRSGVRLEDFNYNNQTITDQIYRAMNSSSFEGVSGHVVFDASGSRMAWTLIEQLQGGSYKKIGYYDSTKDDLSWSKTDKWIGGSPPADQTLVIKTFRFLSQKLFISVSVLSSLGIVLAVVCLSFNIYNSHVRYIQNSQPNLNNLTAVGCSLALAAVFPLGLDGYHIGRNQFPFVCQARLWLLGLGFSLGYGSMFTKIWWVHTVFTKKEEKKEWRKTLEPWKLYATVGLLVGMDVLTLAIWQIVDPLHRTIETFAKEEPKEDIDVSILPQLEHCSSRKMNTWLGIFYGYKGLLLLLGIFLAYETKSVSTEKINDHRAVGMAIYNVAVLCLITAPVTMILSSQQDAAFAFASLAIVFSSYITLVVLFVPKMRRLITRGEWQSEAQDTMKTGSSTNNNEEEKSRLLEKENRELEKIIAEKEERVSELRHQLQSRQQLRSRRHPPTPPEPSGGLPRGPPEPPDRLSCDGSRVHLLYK
Sequence of Delta-type opioid receptor (Homo sapiens) (P41143 whole entry): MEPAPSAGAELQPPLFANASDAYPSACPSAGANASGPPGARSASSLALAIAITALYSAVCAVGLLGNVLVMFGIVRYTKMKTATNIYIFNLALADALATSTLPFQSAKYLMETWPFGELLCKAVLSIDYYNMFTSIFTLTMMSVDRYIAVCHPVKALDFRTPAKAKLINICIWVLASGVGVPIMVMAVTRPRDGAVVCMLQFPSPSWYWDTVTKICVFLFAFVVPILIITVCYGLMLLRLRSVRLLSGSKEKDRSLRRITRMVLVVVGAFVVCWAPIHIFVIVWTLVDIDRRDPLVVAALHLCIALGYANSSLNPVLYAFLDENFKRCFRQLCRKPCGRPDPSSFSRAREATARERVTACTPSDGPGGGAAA
Sequence of Endothelin receptor type B (Homo sapiens) (P24530 whole entry): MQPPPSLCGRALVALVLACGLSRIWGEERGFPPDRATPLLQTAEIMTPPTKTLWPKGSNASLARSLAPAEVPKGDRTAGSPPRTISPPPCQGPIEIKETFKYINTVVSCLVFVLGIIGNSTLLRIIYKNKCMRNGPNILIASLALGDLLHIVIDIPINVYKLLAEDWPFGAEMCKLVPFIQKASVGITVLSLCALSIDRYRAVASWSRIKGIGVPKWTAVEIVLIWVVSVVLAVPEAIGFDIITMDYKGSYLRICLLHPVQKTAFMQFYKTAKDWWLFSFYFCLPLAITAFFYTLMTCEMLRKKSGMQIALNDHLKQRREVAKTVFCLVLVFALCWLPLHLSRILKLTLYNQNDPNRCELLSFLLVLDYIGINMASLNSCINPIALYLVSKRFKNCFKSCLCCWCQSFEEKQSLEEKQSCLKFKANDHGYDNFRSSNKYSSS

As to `COc1nnc2sc(C(=O)NC3CN(c4ncc(C(F)(F)F)cn4)C3)c(N)c2c1C`, the Activity in series [1], in [2], in [5], in series [6], in series [8] and in series [9] was more than 50% in each case. Further, the Activity (in series [11]; in series [12]; in [15]; in series [16]; in the series filed under Rattus norvegicus [17]; in the series listed under Rattus norvegicus [19]) was more than 50% in each case. Besides, the Activity in the series listed under Rattus norvegicus [20] was more than 50%. In addition, the IC50 against Cytochrome P450 3A4 was more than 30 µM. The molecule further registered a %max in the series listed under Canis lupus familiaris of 37%. Moreover, the EC50 in series [3] was 0.09 µM; in [4], more than 30 µM. For the same molecule, the CLH in series [7] came out at 2.52 mL/min/kg. In series [10], this molecule returned an unbound share (fraction unbound) of 0.018. For the same molecule, the Vd in series [13] came to 0.74 L/kg. Moreover, the minimal effective dose with Rattus norvegicus [14] came out at 0.56 mg/kg. Further, the activity at 1.5 h, 10 µM in series [18] is more than 50%.

These data come from ChEMBL document CHEMBL4665653, “VU6005806/AZN-00016130, an advanced M positive allosteric modulator (PAM) profiled as a potential preclinical development candidate” (Bioorg Med Chem Lett, 2019).
